Assay results reported in article PMC12867150, “A fungi-derived cyclic peptide enhances Th9-mediated antitumor immunity by targeting ZAP70 and SREBP1” (The Journal of Clinical Investigation, 2025).
Values joined by “and” are separate entries in the source; they are usually repeats but may differ in a detail not shown here. Equal values may be shown once.

Columns and labels:
[1] = test system: Il9 and Tnf mRNA in Th9 cells; experiment: Quantitative PCR of Il9 and Tnf mRNA with fatostatin or SREBP1 overexpression (Figure 7B, 7H, 7I); type: cell-based, mouse
Method: For murine T cell transduction, MIGR1-based retroviral vector encoding Srebf1 was used. HEK293T cells were transfected with these constructs using Lipofectamine 3000 (Thermo Fisher Scientific) to produce viral particles. Supernatants were collected between 48 and 72 hours after transfection, filtered through a 0.45 μm membrane, and stored at –80°C. Naive murine CD4^+ T cells were activated with plate-bound anti-CD3 (2 μg/mL, clone 17A2, BioXCell) and soluble anti-CD28 (1 μg/mL, clone 37.51, BioXCell) stimulation in the presence of subset-specific polarizing cytokines and then transduced with viral supernatant supplemented with polybrene (10 μg/mL).
Total RNA was extracted from T cells using RNAex Pro Reagent (AG, catalog AG21102) following the manufacturer’s instructions. First-strand complementary DNA (cDNA) was synthesized using the Hifair III 1st Strand cDNA Synthesis SuperMix (YEASEN, catalog 11137ES10). Quantitative real-time PCR (qRT-PCR) was conducted on a QuantStudio 3 Real-Time PCR System (Thermo Fisher Scientific) using ChamQ Universal SYBR qPCR Master Mix (Vazyme, catalog Q711-02) and gene-specific primers (Tsingke Biotech).
For normalization, mouse samples were referenced to Gapdh or Actb, and human samples were normalized to GAPDH. Relative gene expression was calculated using the ΔΔCt method. Primer sequences are listed in Supplemental Table 5.

[2] = test system: mitochondria of human Th9 CAR T cells; experiment: MitoTracker of human Th9 CAR T cells (S9G); type: cell-based; conditions: for mitochondrial mass using Mito Tracker in human Th9 CAR-T cells: flow cytometry, Supplemental Figure 9G
Method: Mitochondrial mass and membrane potential were assessed using MitoTracker™ Deep Red FM (Thermo Fisher Scientific, catalog M22426) and TMRM (tetramethylrhodamine methyl ester; Macklin, catalog T868125), respectively, following the manufacturers’ protocols. Cells were incubated with the respective dyes, washed, and subjected to flow cytometry or fluorescence microscopy analysis. For ultrastructural assessment, mitochondrial number and diameter were quantified from high-resolution transmission electron microscopy (TEM) images using ImageJ software. […]
(C) Flow-cytometric analysis of infection efficiency in Th9 cells transduced with a
CD19-directed CAR lentivirus. […]
(G) Flow-cytometric analysis of mitochondrial mass using Mito Tracker in human
Th9 CAR-T c e l l s (n = 3). […]
(H) and quantification (I) (n = 5 mice per group). Statistical analysis was performed
using one-way ANOVA with Tukey’s post hoc test (A and B), or two-tailed unpaired
Student’s t-test (E–G, and I). Repeated data are presented as mean ± SEM. *p < 0.05,
(also on this page, place not known: TP cells ANOV A 30IL-9+ cells (%) Fato Fato Fato Fato A SSC GzmB CtrlEpA MFIofMitoTracker (×102) GF NormalizedATPlevel CtrlEpA 4MFI of Mito Tracker (×105) CtrlEpA0 GzmB+ cells (%) CD4 10 20 IL-9+ cells (%) Day60 10 20 30 Ctrl)

[3] = test system: EpA-binding proteins in Th9 cell lysates; experiment: EpA-biotin pulldown and LC-MS/MS (Figure 5A, S7A-B); design: species or system mouse; conditions: result in words
Method: Cell lysates from Th9 cells were incubated overnight at 4 °C with EpA-biotin or biotin alone (control). Streptavidin-conjugated magnetic beads were added to capture biotinylated compounds and their interacting proteins. After washing, the bead-bound proteins were resolved by SDS-PAGE and visualized by silver staining. Distinct protein bands were excised, subjected to in-gel enzymatic digestion, and analyzed via liquid chromatography–tandem mass spectrometry (LC-MS/MS) to identify putative EpA-binding proteins.

human Th9 CAR T cells = experiment: IL-9 in human Th9 CAR T cells (S9D-E); type: cell-based; conditions: for IL-9 expression in human Th9 CAR-T cells: Supplemental Figure 9E; for IL-9 gate number: representative flow plot, Figure S9D
Description: Details regarding staining panels (human and mouse), reagents (including clones and catalog numbers), acquisition settings, compensation/controls, and analysis procedures are provided in Supplemental Methods. […]
(C) Flow-cytometric analysis of infection efficiency in Th9 cells transduced with a CD19-directed CAR lentivirus. (D and E) Flow-cytometric analysis of IL-9 expression in human Th9 CAR-T cells on days 5 and 6 of in vitro differentiation, showing representative plots (D) and quantification (E) (n = 3). […]
(H) and quantification (I) (n = 5 mice per group). Statistical analysis was performed using one-way ANOVA with Tukey’s post hoc test (A and B), or two-tailed unpaired Student’s t-test (E–G, and I). Repeated data are presented as mean ± SEM. *p < 0.05, […]
(also on this page, place not known: TP cells ANOV A 30IL-9+ cells (%) Fato Fato Fato Fato A SSC GzmB CtrlEpA MFIofMitoTracker (×102) GF NormalizedATPlevel CtrlEpA 4MFI of Mito Tracker (×105) CtrlEpA0 GzmB+ cells (%) CD4 10 20 IL-9+ cells (%) Day60 10 20 30 Ctrl) […]

## anteiso-C15 Leu7 surfactin [EpA]
[1]; Figure 7B, EpA (10 µM) + Fatostatin (10 µM), individual replicates, (n = 3)
  Il9 mRNA expression (quantitative PCR): 42.4796 and 40.5146 and 54.9024
[1]; Figure 7H, MigR1 vector, individual replicates, (n = 3)
  Il9 mRNA expression in Th9 cells: 17.2536 and 18.9128 and 17.6178
[1]; Figure 7H, overexpressing SREBP1, individual replicates, (n = 3)
  Il9 mRNA expression in Th9 cells: 6.0458 and 5.242 and 5.497
[1]; Figure 7I, MigR1 vector, individual replicates, (n = 3)
  Il9 mRNA expression in Th9 cells: 2.765 and 2.875 and 2.532
[1]; Figure 7I, overexpressing SREBP1, individual replicates, (n = 3)
  Il9 mRNA expression in Th9 cells: 1.999 and 1.591 and 1.423
[1]; result in words
  EpA-induced Il9 and Tnf mRNA increase upon SREBP1 overexpression: markedly suppressed
[2]; replicate 1
  mitochondrial mass using Mito Tracker in human Th9 CAR-T cells: 3352
[2]; replicate 2
  mitochondrial mass using Mito Tracker in human Th9 CAR-T cells: 3381
[2]; replicate 3
  mitochondrial mass using Mito Tracker in human Th9 CAR-T cells: 3457
[2]; result in words
  mitochondrial potential, Th9 CAR T: elevated
[3]
  EpA pulldown, ZAP70: top candidate
Human Th9 CAR T cells; Day5, replicate 1
  IL-9 expression in human Th9 CAR-T cells: 27.7
Human Th9 CAR T cells; Day5, replicate 2
  IL-9 expression in human Th9 CAR-T cells: 21.8
Human Th9 CAR T cells; Day5, replicate 3
  IL-9 expression in human Th9 CAR-T cells: 25.1
Human Th9 CAR T cells; Day5
  IL-9 gate number: 24.8
Human Th9 CAR T cells; Day6, replicate 1
  IL-9 expression in human Th9 CAR-T cells: 6.55
Human Th9 CAR T cells; Day6, replicate 2
  IL-9 expression in human Th9 CAR-T cells: 6.68
Human Th9 CAR T cells; Day6, replicate 3
  IL-9 expression in human Th9 CAR-T cells: 6.84
Human Th9 CAR T cells; Day6
  IL-9 gate number: 6.7
Human Th9 CAR T cells; result in words
  IL-9 production, Th9 CAR T: increased IL-9 production
